Data reported in patent EP0551953A2, “17-(Pyridazine-N-oxide)-substituted steroidal compounds active on the cardiovascular system” (ZAMBON GROUP S.p.A., priority 1992, dated 1993).
Where two headings read alike, the source gives them in different places.

Test system: alpha₃ isoform of rat (Na⁺+K⁺)-ATPase
Test: Displacement of [3H]-ouabain, alpha3 isoform, rat brain preparation
Format: binding
Text: The activity of the compounds of formula II has been evaluated with the binding test on the alpha₁ and alpha₃ isoforms of rat (Na⁺+K⁺)-ATPase in rat kidney and rat brain, according to the method described by Noel F. et al., Biochemical Pharmacology, 40(12), pp 2611-2616, (1990) (see Example 2).
Evaluation of the interaction with the alpha₁ and alpha₃ isoforms of rat (Na⁺+K⁺)-ATPase
The method of Noel F. et al., Biochemical Pharmacology, 40(12), pp. 2611-2616, (1990) was used to evaluate the displacement of [³H]-ouabain in preparations of rat kidney and rat brain, containing various concentrations of nerifolin, 3beta-(alpha-L-tevetopyranosyloxy)-14-hydroxy-17beta-(4-pyridazil)-5beta,14beta-androstane (compound R), compound 5 and compound 6 and the corresponding genins, respectively, digitoxygenin, 3beta,14-dihydroxy-17beta-(4-pyridazil)-5beta,14beta-androstane (genin 1), 3beta,14-dihydroxy-17beta-(4-pyridazinyl-2-N-oxide)-5beta,14beta-androstane (genin 2) and 3beta,14-dihydroxy-17beta-(4-pyridazinyl-1-N-oxide)-5beta,14beta-androstane (genin 3).

[1] = selectivity index, alpha₁ (rat kidney) versus alpha₃ (rat brain)

SMILES | K₁(alpha₁)/K₁(alpha₃) [1] | K₁(alpha₁)/K₁(alpha₃)
CO[C@H]1[C@H](O)[C@H](O[C@H]2CC[C@@]3(C)[C@H](CC[C@@H]4[C@@H]3CC[C@]3(C)[C@@H](c5cc[n+]([O-])nc5)CC[C@]43O)C2)O[C@@H](C)[C@@H]1O [Compound 6, 3beta-(alfa-L-tevetopyranosyloxy)-14-hydroxy-17beta-(4-pyridazinyl-1-N-oxide)-5beta,14beta-androstane] | ≧1000 | 
CO[C@H]1[C@H](O)[C@H](O[C@H]2CC[C@@]3(C)[C@H](CC[C@@H]4[C@@H]3CC[C@]3(C)[C@@H](c5ccn[n+]([O-])c5)CC[C@]43O)C2)O[C@@H](C)[C@@H]1O [Compound 5, 3beta-(alfa-L-tevetopyranosyloxy)-14-hydroxy-17beta-(4-pyridazinyl-2-N-oxide)-5beta,14beta-androstane] | ≧1258 | 
C[C@]12CC[C@H](O)C[C@H]1CC[C@@H]1[C@@H]2CC[C@]2(C)[C@@H](C3=CC(=O)OC3)CC[C@]12O [Digitoxygenin, digitoxygenin] |  | 37
CO[C@H]1[C@H](O)[C@H](O[C@H]2CC[C@@]3(C)[C@H](CC[C@@H]4[C@@H]3CC[C@]3(C)[C@@H](C5=CC(=O)OC5)CC[C@]43O)C2)O[C@@H](C)[C@@H]1O [Nerifolin, nerifolin] | 90 | 
CO[C@H]1[C@H](O)[C@H](O[C@H]2CC[C@@]3(C)[C@H](CC[C@@H]4[C@@H]3CC[C@]3(C)[C@@H](c5ccnnc5)CC[C@]43O)C2)O[C@@H](C)[C@@H]1O [Compound R, 3beta-(alpha-L-tevetopyranosyloxy)-14-hydroxy-17beta-(4-pyridazil)-5beta,14beta-androstane] | 63 | 
C[C@]12CC[C@H](O)C[C@H]1CC[C@@H]1[C@@H]2CC[C@]2(C)[C@@H](c3ccnnc3)CC[C@]12O [Genin 1, 3beta,14-dihydroxy-17beta-(4-pyridazil)-5beta,14beta-androstane] | 96 | 
